Laboratory results taken from publication PMC11435058, “Synthesis of New Thiazole-Privileged Chalcones as Tubulin Polymerization Inhibitors with Potential Anticancer Activities” (Pharmaceuticals, 2024).
pIC50: −log10 of the molar value.

Legend:
COLO 205 = assay: NCI-60 anticancer screen (SRB; single dose and five doses); conditions: Homo sapiens
T-47D = assay: as above; conditions: Homo sapiens, T47D
SR = assay: as above; conditions: Homo sapiens
SN12C = assay: as above; conditions: Homo sapiens
BT-549 = assay: as above; conditions: Homo sapiens
RPMI-8226 = assay: as above; conditions: Homo sapiens
HT29 = assay: as above; conditions: Homo sapiens
HCT-15 = assay: as above; conditions: Homo sapiens
HOP-92 = assay: as above; conditions: Homo sapiens
NCI-H460 = assay: as above; conditions: Homo sapiens
CCRF-CEM = assay: NCI-60 anticancer screen (SRB; single dose 10 μM and five doses); conditions: Homo sapiens
NCI/ADR-RES = assay: NCI-60 anticancer screen (SRB; single dose and five doses); conditions: Homo sapiens
TK-10 = assay: as above; conditions: Homo sapiens
HCC-2998 = assay: as above
OVCAR-4 = assay: as above; conditions: Homo sapiens
A498 = assay: as above; conditions: Homo sapiens
NCI-H23 = assay: as above; conditions: Homo sapiens
K-562 = assay: as above; conditions: Homo sapiens
786-0 = assay: as above; conditions: Homo sapiens
KM12 = assay: as above; conditions: Homo sapiens
HOP-62 = assay: as above; conditions: Homo sapiens
SNB-75 = assay: as above
EKVX = assay: as above; conditions: Homo sapiens
LOX IMVI = assay: as above; conditions: Homo sapiens
DU-145 = assay: as above; conditions: Homo sapiens
A549/ATCC = assay: as above; conditions: Homo sapiens
ACHN = assay: as above; conditions: Homo sapiens
PC-3 = assay: as above; conditions: Homo sapiens
SK-MEL-28 = assay: as above; conditions: Homo sapiens
[1] = 48 h, read-out: Growth Percentage

SMILES: Cc1[nH]c(=S)sc1C(=O)/C=C/c1cccc([N+](=O)[O-])c1 [2h, (E)-1-(4-Methyl-2-Thioxo-2,3-Dihydrothiazol-5-yl)-3-(3-Nitrophenyl)Prop-2-En-1-One]
- GI50 (COLO 205; COLO 205): 5.75 µM
- pIC50 (COLO 205; COLO 205): 5.06
- activity at 10 µM (COLO 205; COLO 205, 48 h, read-out: Growth Percentage): -24.9%
- CC50 (COLO 205; COLO 205, read-out: LC50): 51.3 µM
- IC (TGI) (COLO 205; COLO 205, read-out: TGI): 19.1 µM
- GI50 (T-47D): 2 µM
- pIC50 (T-47D): 5.31
- activity at 10 µM (T-47D; [1]): -56.6%
- CC50 (T-47D; read-out: LC50): 66.1 µM
- IC (TGI) (T-47D; read-out: TGI): 7.08 µM
- GI50 (SR): 2.75 µM
- pIC50 (SR): 5.41
- activity at 10 µM (SR; [1]): -11%
- CC50 (SR; read-out: LC50): > 100 µM
- IC (TGI) (SR; read-out: TGI): > 100 µM
- GI50 (SN12C): 2.69 µM
- pIC50 (SN12C): 5.36
- activity at 10 µM (SN12C; [1]): -25.6%
- CC50 (SN12C; read-out: LC50): 33.1 µM
- IC (TGI) (SN12C; read-out: TGI): 10.2 µM
- GI50 (BT-549; BT-549): 3.8 µM
- pIC50 (BT-549; BT-549): 4.87
- activity at 10 µM (BT-549; BT-549, 48 h, read-out: Growth Percentage): -14%
- CC50 (BT-549; BT-549, read-out: LC50): 43.6 µM
- IC (TGI) (BT-549; BT-549, read-out: TGI): 14.8 µM
- GI50 (RPMI-8226; RPMI-8226): 2.04 µM
- activity at 10 µM (RPMI-8226; RPMI-8226, 48 h, read-out: Growth Percentage): 9.39%
- pIC50 (RPMI-8226; RPMI-8226, five-dose, Leukemia RPMI-8226): 5.43
- CC50 (RPMI-8226; RPMI-8226, read-out: LC50): > 100 µM
- IC (TGI) (RPMI-8226; RPMI-8226, read-out: TGI): 6.31 µM
- GI50 (HT29; HT-29): 5.5 µM
- pIC50 (HT29; HT-29): 5.14
- activity at 10 µM (HT29; HT-29, 48 h, read-out: Growth Percentage): 20.4%
- CC50 (HT29; HT-29, read-out: LC50): 60.3 µM
- IC (TGI) (HT29; HT-29, read-out: TGI): 19.9 µM
- GI50 (HCT-15; HCT-15): 2.14 µM
- pIC50 (HCT-15; HCT-15): 5.46
- activity at 10 µM (HCT-15; HCT-15, 48 h, read-out: Growth Percentage): -36.4%
- CC50 (HCT-15; HCT-15, read-out: LC50): 31.6 µM
- IC (TGI) (HCT-15; HCT-15, read-out: TGI): 7.76 µM
- GI50 (HOP-92; HOP-92): 3.89 µM
- pIC50 (HOP-92; HOP-92): 4.65
- CC50 (HOP-92; HOP-92, read-out: LC50): 44.7 µM
- IC (TGI) (HOP-92; HOP-92, read-out: TGI): 16.6 µM
- GI50 (NCI-H460; NCI-H460): 3.63 µM
- pIC50 (NCI-H460; NCI-H460): 5.37
- activity at 10 µM (NCI-H460; NCI-H460, 48 h, read-out: Growth Percentage): -30.7%
- CC50 (NCI-H460; NCI-H460, read-out: LC50): 55 µM
- IC (TGI) (NCI-H460; NCI-H460, read-out: TGI): 13.8 µM
- GI50 (CCRF-CEM): 2.14 µM
- activity at 10 µM (CCRF-CEM; [1]): 13.8%
- pIC50 (CCRF-CEM; five-dose, Leukemia CCRF-CEM): 5.47
- CC50 (CCRF-CEM; read-out: LC50): > 100 µM
- IC (TGI) (CCRF-CEM; read-out: TGI): 6.61 µM
- GI50 (NCI/ADR-RES): 2.51 µM
- pIC50 (NCI/ADR-RES): 5.37
- activity at 10 µM (NCI/ADR-RES; [1]): 8.19%
- CC50 (NCI/ADR-RES; read-out: LC50): > 100 µM
- IC (TGI) (NCI/ADR-RES; read-out: TGI): 5.75 µM
- GI50 (TK-10; TK-10): 11.2 µM
- pIC50 (TK-10; TK-10): 4.64
- CC50 (TK-10; TK-10, read-out: LC50): 50.1 µM
- IC (TGI) (TK-10; TK-10, read-out: TGI): 23.4 µM
- GI50 (HCC-2998; Homo sapiens, HCC 2998): 2 µM
- pIC50 (HCC-2998; Homo sapiens, HCC 2998): 5.44
- activity at 10 µM (HCC-2998; Homo sapiens, HCC 2998, 48 h, read-out: Growth Percentage): -86.7%
- CC50 (HCC-2998; Homo sapiens, HCC 2998, read-out: LC50): 11.8 µM
- TGI (HCC-2998; five-dose, Colon Cancer HCC-2998): 4.57 µM
- GI50 (OVCAR-4; OVCAR-4): 11 µM
- pIC50 (OVCAR-4; OVCAR-4): 4.69
- activity at 10 µM (OVCAR-4; OVCAR-4, 48 h, read-out: Growth Percentage): 13.1%
- CC50 (OVCAR-4; OVCAR-4, read-out: LC50): 51.3 µM
- IC (TGI) (OVCAR-4; OVCAR-4, read-out: TGI): 24 µM
- GI50 (A498; A498): 14.8 µM
- pIC50 (A498; A498): 4.53
- CC50 (A498; A498, read-out: LC50): 55 µM
- IC (TGI) (A498; A498, read-out: TGI): 28.2 µM
- GI50 (NCI-H23; NCI-H23): 5.37 µM
- pIC50 (NCI-H23; NCI-H23): 5.00
- activity at 10 µM (NCI-H23; NCI-H23, 48 h, read-out: Growth Percentage): -72.8%
- CC50 (NCI-H23; NCI-H23, read-out: LC50): 45.7 µM
- IC (TGI) (NCI-H23; NCI-H23, read-out: TGI): 18.2 µM
- GI50 (K-562; K562): 3.09 µM
- pIC50 (K-562; K562): 5.43
- activity at 10 µM (K-562; K562, 48 h, read-out: Growth Percentage): 13.8%
- CC50 (K-562; K562, read-out: LC50): > 100 µM
- IC (TGI) (K-562; K562, read-out: TGI): > 100 µM
- GI50 (786-0; 786-0): 3.98 µM
- pIC50 (786-0; 786-0): 5.20
- activity at 10 µM (786-0; 786-0, 48 h, read-out: Growth Percentage): -10.8%
- CC50 (786-0; 786-0, read-out: LC50): 50.1 µM
- IC (TGI) (786-0; 786-0, read-out: TGI): 15.8 µM
- GI50 (KM12; KM12): 3.63 µM
- pIC50 (KM12; KM12): 5.27
- activity at 10 µM (KM12; KM12, 48 h, read-out: Growth Percentage): -78.4%
- CC50 (KM12; KM12, read-out: LC50): 42.7 µM
- IC (TGI) (KM12; KM12, read-out: TGI): 13.2 µM
- GI50 (HOP-62; HOP-62): 3.98 µM
- pIC50 (HOP-62; HOP-62): 5.17
- activity at 10 µM (HOP-62; HOP-62, 48 h, read-out: Growth Percentage): 0.68%
- CC50 (HOP-62; HOP-62, read-out: LC50): 40.7 µM
- IC (TGI) (HOP-62; HOP-62, read-out: TGI): 12.3 µM
- GI50 (SNB-75; Homo sapiens, SNB-75): 2.29 µM
- pIC50 (SNB-75; Homo sapiens, SNB-75): 5.07
- CC50 (SNB-75; Homo sapiens, SNB-75, read-out: LC50): 27.5 µM
- TGI (SNB-75; five-dose, CNS Cancer SNB-75): 7.41 µM
- GI50 (EKVX): 5.75 µM
- pIC50 (EKVX): 4.82
- activity at 10 µM (EKVX; [1]): 0.65%
- CC50 (EKVX; read-out: LC50): 46.8 µM
- IC (TGI) (EKVX; read-out: TGI): 19.5 µM
- GI50 (LOX IMVI): 1.58 µM
- pIC50 (LOX IMVI): 5.56
- activity at 10 µM (LOX IMVI; [1]): -99%
- CC50 (LOX IMVI; read-out: LC50): 6.03 µM
- IC (TGI) (LOX IMVI; read-out: TGI): 3.09 µM
- GI50 (DU-145; DU-145): 2.4 µM
- pIC50 (DU-145; DU-145): 5.41
- activity at 10 µM (DU-145; DU-145, 48 h, read-out: Growth Percentage): 8.55%
- CC50 (DU-145; DU-145, read-out: LC50): 23.4 µM
- IC (TGI) (DU-145; DU-145, read-out: TGI): 6.17 µM
- GI50 (A549/ATCC; A549): 3.24 µM
- pIC50 (A549/ATCC; A549): 5.35
- activity at 10 µM (A549/ATCC; A549, 48 h, read-out: Growth Percentage): 19.5%
- CC50 (A549/ATCC; A549, read-out: LC50): 55 µM
- IC (TGI) (A549/ATCC; A549, read-out: TGI): 12 µM
- GI50 (ACHN): 4.07 µM
- pIC50 (ACHN): 5.21
- activity at 10 µM (ACHN; [1]): -58.4%
- CC50 (ACHN; read-out: LC50): 38.9 µM
- IC (TGI) (ACHN; read-out: TGI): 14.8 µM
- GI50 (PC-3; PC-3): 4.07 µM
- pIC50 (PC-3; PC-3): 5.09
- activity at 10 µM (PC-3; PC-3, 48 h, read-out: Growth Percentage): 8.43%
- CC50 (PC-3; PC-3, read-out: LC50): 56.2 µM
- IC (TGI) (PC-3; PC-3, read-out: TGI): 17.8 µM
- GI50 (SK-MEL-28; SK-MEL-28): 5.5 µM
- pIC50 (SK-MEL-28; SK-MEL-28): 4.88
- activity at 10 µM (SK-MEL-28; SK-MEL-28, 48 h, read-out: Growth Percentage): -47%
- CC50 (SK-MEL-28; SK-MEL-28, read-out: LC50): 44.7 µM
- IC (TGI) (SK-MEL-28; SK-MEL-28, read-out: TGI): 18.2 µM
